The values that follow come from PMC9728921, “Characterization of a KDM5 small molecule inhibitor with antiviral activity against hepatitis B virus” (PLOS ONE, 2022).

One assay has as its target T1, KDM5A (Homo sapiens, UniProt P29375).
T1 construct: purchased Reaction Biology Corp (assay run there as a contract service)
Briefly: KDM5A enzymatic assay (CisBio HTRF). The format is biochemical. On the procedure: (§1) KDM5A and 5B were tested using CisBio HTRF assay platform by Reaction Biology Corp (Malvern, PA). All concentrations are final unless noted otherwise. Inhibitors were pre-incubated with 2.5 nM KDM5A or 1.2 nM KDM5B in a 5 μL reaction mixture containing 50 mM HEPES (pH 7.5), 50 mM NaCl, 0.01% Tween 20, 0.01% BSA for 15 min temperature. The reaction was initiated by addition of 5 μL of 50 nM Biotin-H3K4me3 and incubated with gentle shaking for 45 min at RT. The reaction was quenched with 10 mM EDTA and 200 mM potassium fluoride. Upon addition of Eu-Antibody and Streptavidine-XL665, the mixture was incubated for 2 hours in the dark. The fluorescence resonance energy transfer was measured using an excitation wavelength of 320 nm and emission wavelength of 665 nm on an Envision plate reader (Perkin Elmer).
(§2) Data was analyzed using GraphPad Prism 6.0 (La Jolla, CA). […] IC50 values were calculated as an average of at least two independent experiments.

The next assay addresses T2, HDAC-1 (Homo sapiens, UniProt Q13547).
T2 construct: Full length; purchased BPS
The assay can be described thus: HDAC-1 histone deacetylase assay (FLUOR DE LYS). Type of assay: biochemical. As to conditions: enzyme conc. 5 nM.

The next assay has as its target KDM6B (Homo sapiens, UniProt O15054). Briefly: KDM6B enzymatic assay (AlphaLISA). The format is biochemical. On the procedure: (§3) The following assay protocol was used for all histone demethylases tested except KDM1A, KDM5A, B, and D, which are described below. Compounds were serially diluted into a 384-well Alpha plate as a DMSO solution and mixed with 5 μL reaction buffer (buffer A) containing 50 mM HEPES (pH 7.0), 0.1% BSA, and 0.003% Tween-20. The enzyme of interest was pre-incubated with 15 μM of Fe^2+ for 10 min (except 30 min for KDM2B) in reaction buffer A. 5 μL of the enzyme mixture was added to each of the compound-containing wells and incubated for 10 min. The reaction was started by addition of a 5 μL mixture containing 300 nM peptide substrate, 75 μM L-ascorbic acid, and 30 μM α-ketoglutarate in buffer A. This final 15 μL of reaction mixture was incubated for 20 min for KDM5B and 1 hour for the other KDM enzymes. The reaction was quenched with 10 μL of diluted AlphaLISA Acceptor beads (1:400) in Epigenetics Buffer and incubated for 60 min. The Donor beads were diluted 1:400 into Epigenetics Buffer in the dark and 10 μL of this was added to each well and incubated for another 60 min in the dark. The assay plates were read on an Enspire plate reader (PerkinElmer) using a standard AlphaLISA program.
as §2

For another assay, the target named is KDM6A (Homo sapiens, UniProt O15550). The assay can be described thus: KDM6A enzymatic assay (AlphaLISA). The format is biochemical. How it is done: as §3, §2
A further assay addresses KDM7B (Homo sapiens, UniProt Q9UPP1). Briefly: KDM7B enzymatic assay (AlphaLISA). The format is biochemical. How it is done:
as §3, §2

For the next assay, the target named is PRMT5/MEP50 (Homo sapiens, UniProt O14744). Briefly: Histone methyltransferase enzymatic assay, PRMT5/MEP50. The settings on record: enzyme conc. 100 nM. The format is biochemical. How it is done: (§4) Histone methyltransferase assays were performed in 96-well half-area optiplates (PerkinElmer) at room temperature. All concentrations are final unless noted otherwise. Compounds were serially diluted in DMSO and the final DMSO concentration was 1%. A 24 μL reaction mixture contained compound, enzyme, 200 nM of nucleosome or histone substrate, 400 nM ^3H-SAM (83.1 Ci/mmol), 50 mM Tris-HCl (pH 8.0), 50 mM NaCl, 5 mM MgCl2, 1 mM DTT, and 0.01% Tween-20. The plate was sealed, mixed on a Titramax plate shaker at 1200 rpm for 30 sec, and incubated at room temperature for 60 min. The reaction was quenched by addition of 24 μL mixture containing 5 mg/mL PVT-PEI beads and 300 μM unlabeled SAM in water. The plate was sealed, mixed as previously noted, incubated overnight, and read on a TopCount plate reader (PerkinElmer).
as §2

The next assay deals with T3, GLP (Homo sapiens, UniProt Q9H9B1).
T3 construct: 894-1298; purchased RBC (read as Reaction Biology Corporation, named)
T3 sequence (Q9H9B1 894-1298): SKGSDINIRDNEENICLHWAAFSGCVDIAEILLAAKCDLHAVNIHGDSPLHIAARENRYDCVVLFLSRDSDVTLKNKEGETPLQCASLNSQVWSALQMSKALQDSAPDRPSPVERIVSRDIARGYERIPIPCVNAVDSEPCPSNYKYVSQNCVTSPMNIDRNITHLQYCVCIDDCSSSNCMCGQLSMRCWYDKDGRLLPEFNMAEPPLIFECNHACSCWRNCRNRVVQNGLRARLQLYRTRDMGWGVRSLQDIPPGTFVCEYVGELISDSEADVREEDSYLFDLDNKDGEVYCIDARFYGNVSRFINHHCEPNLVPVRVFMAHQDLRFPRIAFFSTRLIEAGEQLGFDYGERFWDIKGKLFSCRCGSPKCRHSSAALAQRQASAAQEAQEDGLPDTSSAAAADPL
The assay can be described thus: Histone methyltransferase enzymatic assay, GLP. The format is biochemical. The settings on record: enzyme conc. 100 nM; read-out: IC50. How it is done: as §4, §2

A further assay concerns the target T4, KDM5B (Homo sapiens, UniProt Q9UGL1).
T4 construct: purchased Reaction Biology Corp (assay run there as a contract service)
The assay can be described thus: KDM5B enzymatic assay (CisBio HTRF). Type of assay: biochemical. On the procedure:
as §1, §2

The target of another assay is KDM4C (Homo sapiens, UniProt Q9H3R0). Briefly: biochemical. How it is done: as §3, §2
Chain of KDM4C (Q9H3R0 whole entry): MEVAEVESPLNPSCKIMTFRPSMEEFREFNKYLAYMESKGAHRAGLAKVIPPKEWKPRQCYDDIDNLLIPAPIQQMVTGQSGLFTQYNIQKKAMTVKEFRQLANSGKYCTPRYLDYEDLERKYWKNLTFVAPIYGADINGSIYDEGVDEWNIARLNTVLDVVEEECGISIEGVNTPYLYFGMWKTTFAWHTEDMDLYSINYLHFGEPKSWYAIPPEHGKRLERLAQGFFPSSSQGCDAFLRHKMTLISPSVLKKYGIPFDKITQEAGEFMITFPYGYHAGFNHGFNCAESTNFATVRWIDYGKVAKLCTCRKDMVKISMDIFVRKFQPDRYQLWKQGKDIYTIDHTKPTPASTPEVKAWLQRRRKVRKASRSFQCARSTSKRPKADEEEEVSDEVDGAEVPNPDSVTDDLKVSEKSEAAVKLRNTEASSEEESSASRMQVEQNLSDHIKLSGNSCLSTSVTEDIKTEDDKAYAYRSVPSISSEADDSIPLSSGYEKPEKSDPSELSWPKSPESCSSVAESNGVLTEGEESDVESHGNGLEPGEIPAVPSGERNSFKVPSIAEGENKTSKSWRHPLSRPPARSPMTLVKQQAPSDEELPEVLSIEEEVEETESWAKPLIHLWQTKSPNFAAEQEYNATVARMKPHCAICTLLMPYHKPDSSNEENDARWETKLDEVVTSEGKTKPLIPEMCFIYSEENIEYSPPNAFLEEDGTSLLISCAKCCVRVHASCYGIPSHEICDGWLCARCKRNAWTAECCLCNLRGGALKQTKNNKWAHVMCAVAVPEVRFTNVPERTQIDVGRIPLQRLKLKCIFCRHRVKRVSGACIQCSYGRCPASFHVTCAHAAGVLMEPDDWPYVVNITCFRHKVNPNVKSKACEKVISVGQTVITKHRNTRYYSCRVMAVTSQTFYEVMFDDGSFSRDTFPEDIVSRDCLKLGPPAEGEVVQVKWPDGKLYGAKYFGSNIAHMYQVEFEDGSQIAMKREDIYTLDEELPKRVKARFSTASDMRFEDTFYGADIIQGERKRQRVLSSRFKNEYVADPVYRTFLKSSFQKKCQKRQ
The next assay deals with T5, NSD2 (Homo sapiens, UniProt O96028).
T5 construct: Full Length; purchased RBC (read as Reaction Biology Corporation, named)
Briefly: Histone methyltransferase enzymatic assay, NSD2. The format is biochemical. The settings on record: enzyme conc. 10 nM. How it is done: as §4, §2

Chain of KDM6B (O15054 whole entry): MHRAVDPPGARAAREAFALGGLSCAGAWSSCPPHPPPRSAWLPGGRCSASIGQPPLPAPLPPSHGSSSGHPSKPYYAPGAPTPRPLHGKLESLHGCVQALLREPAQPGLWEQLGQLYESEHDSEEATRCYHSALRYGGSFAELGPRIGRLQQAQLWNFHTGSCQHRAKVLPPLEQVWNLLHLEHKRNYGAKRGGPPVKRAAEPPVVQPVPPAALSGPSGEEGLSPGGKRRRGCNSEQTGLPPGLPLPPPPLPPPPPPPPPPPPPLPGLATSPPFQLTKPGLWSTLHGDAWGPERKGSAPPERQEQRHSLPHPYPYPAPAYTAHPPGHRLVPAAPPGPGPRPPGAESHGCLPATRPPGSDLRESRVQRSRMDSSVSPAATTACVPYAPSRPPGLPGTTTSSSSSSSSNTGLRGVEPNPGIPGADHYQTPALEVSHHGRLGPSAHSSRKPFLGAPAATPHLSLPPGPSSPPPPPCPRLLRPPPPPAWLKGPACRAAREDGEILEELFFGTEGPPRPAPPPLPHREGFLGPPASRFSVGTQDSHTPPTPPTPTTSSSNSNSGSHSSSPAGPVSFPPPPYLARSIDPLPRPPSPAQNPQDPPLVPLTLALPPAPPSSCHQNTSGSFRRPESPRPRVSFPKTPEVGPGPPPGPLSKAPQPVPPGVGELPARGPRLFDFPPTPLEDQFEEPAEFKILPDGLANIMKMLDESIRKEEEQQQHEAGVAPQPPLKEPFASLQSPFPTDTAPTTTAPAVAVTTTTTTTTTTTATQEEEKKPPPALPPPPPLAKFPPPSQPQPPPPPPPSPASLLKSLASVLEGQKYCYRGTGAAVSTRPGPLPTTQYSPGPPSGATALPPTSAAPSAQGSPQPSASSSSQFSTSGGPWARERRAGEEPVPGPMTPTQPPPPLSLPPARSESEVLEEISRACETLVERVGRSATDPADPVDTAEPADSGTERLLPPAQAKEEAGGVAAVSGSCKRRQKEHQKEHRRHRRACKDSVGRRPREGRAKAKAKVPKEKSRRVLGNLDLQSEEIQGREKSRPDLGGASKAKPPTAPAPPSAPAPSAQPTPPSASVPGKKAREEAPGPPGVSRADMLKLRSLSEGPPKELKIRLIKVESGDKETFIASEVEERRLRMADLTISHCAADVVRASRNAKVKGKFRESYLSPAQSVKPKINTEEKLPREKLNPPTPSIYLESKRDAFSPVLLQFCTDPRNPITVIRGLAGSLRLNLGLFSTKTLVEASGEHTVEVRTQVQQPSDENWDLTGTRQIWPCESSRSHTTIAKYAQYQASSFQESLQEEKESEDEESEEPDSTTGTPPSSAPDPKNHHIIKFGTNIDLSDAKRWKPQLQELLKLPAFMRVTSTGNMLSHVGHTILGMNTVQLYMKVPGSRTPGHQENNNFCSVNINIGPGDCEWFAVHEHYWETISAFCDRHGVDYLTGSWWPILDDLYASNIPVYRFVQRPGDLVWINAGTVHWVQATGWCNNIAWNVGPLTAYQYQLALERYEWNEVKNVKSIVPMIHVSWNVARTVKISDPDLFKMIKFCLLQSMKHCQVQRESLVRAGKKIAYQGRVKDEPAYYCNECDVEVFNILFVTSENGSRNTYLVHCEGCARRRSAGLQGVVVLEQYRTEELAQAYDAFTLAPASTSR
T4 sequence (Q9UGL1 whole entry): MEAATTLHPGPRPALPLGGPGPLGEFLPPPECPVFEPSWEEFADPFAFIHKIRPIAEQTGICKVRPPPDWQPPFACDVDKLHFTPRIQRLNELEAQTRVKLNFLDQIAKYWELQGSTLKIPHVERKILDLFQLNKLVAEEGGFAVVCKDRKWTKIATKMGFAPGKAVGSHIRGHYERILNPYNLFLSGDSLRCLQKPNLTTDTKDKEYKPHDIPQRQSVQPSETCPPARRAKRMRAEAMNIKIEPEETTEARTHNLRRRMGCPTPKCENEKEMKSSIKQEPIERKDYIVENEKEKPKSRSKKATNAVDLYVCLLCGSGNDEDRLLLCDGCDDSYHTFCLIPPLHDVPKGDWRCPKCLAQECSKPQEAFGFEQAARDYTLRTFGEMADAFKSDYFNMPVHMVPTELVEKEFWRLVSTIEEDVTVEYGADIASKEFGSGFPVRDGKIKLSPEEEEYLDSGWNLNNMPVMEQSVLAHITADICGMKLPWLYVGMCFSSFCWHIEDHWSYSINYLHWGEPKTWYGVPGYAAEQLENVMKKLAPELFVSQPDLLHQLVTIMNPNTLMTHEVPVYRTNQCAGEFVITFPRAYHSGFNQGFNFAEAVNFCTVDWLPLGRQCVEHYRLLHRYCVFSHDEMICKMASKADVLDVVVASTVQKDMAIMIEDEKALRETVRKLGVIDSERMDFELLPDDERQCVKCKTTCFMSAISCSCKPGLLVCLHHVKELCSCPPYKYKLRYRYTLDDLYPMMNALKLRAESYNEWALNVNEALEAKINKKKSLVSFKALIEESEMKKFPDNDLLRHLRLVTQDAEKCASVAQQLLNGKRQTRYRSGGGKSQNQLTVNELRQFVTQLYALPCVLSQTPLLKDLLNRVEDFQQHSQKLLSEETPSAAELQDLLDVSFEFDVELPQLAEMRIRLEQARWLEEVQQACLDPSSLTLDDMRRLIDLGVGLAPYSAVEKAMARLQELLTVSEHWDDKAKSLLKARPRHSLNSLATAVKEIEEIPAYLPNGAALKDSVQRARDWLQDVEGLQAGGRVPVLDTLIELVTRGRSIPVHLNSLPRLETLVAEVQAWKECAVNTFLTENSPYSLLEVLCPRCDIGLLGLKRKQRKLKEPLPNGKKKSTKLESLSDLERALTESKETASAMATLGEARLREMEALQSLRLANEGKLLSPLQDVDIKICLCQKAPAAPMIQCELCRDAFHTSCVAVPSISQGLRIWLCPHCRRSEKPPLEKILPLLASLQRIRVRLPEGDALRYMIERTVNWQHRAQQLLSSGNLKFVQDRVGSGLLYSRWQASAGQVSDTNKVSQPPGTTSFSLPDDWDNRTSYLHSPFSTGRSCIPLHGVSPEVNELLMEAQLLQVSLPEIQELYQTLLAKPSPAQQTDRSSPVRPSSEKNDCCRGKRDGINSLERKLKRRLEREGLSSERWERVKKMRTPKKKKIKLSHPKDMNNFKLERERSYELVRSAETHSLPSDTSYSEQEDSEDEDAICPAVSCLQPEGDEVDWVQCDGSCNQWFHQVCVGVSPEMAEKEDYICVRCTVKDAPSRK
T2 sequence (Q13547 whole entry): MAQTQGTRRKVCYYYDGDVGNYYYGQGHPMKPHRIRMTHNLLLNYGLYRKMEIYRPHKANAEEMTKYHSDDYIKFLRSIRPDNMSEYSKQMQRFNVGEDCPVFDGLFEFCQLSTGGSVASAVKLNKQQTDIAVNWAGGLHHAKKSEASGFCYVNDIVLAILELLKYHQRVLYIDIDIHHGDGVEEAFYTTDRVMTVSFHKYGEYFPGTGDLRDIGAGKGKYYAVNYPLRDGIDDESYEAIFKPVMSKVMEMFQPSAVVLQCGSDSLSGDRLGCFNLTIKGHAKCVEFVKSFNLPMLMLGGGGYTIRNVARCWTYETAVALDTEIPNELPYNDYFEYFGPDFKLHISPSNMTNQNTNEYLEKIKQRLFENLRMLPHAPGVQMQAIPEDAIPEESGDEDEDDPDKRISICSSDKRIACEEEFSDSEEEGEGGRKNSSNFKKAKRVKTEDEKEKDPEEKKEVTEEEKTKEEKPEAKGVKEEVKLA

In the case of `CCN(CCN(C)C)C(=O)CNCc1cc(C(=O)O)ccn1` [GS-080], the “Fold Selectivity Compared to KDM5A” value is listed as 1 fold at KDM5A (IC50 of KDM5A over KDM5A); > 17,200 fold on KDM6B (IC50 of KDM6B over KDM5A); > 17,200 fold at KDM6A (IC50 of KDM6A over KDM5A); > 1,110 fold on KDM7B (IC50 of KDM7B over KDM5A); 1 fold at KDM5B (IC50 of KDM5B over KDM5A); 13 fold on KDM4C (IC50 of KDM4C over KDM5A). Further, the IC50 is 0.00036 µM on KDM5A (enzyme concentration 2.5 nM, IC50 lower than enzyme concentration, likely underestimates potency); greater than 100 µM at HDAC-1; 6.2 µM at KDM6B (enzyme concentration 1 nM, read-out: IC50); 6.2 µM against KDM6A (enzyme concentration 2 nM); 0.4 µM against KDM7B (enzyme concentration 2.5 nM); greater than 100 µM against PRMT5/MEP50. Besides, the IC50 at GLP is greater than 100 µM; at KDM5B (enzyme concentration 1.2 nM, IC50 lower than enzyme concentration, likely underestimates potency), 0.00038 µM; at KDM4C it was 0.0048 µM; at NSD2 it was greater than 100 µM.
